# Measurements taken from PubChem BioAssay AID330 (DTP/NCI, 2004).
# Where “and” joins values, the source holds several entries; their conditions need not be identical. Equal entries are not always repeated. Inconclusive results and toxic doses are left out.
# Test system: P388 leukemia ip, CD2F1 mice, survival T/C
# Test: NCI In Vivo Anticancer Drug Screen. Data for tumor model P388 Leukemia (intraperitoneal) in CD2F1 (CDF1) mice
# Conditions: endpoint: median survival time, higher = longer survival
# Procedure, shortened: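 Mice carrying the transplanted tumor received test compound or vehicle. Survival was recorded in each group, and the value is the treated-group measurement divided by that of the vehicle-treated control group.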
# [1] = dose: 50.0 mg/kg/injection, schedule: Q01DX005 (ip), vehicle: saline with Tween-80
# [2] = dose: 50.0 mg/kg/injection, schedule: Q01DX009 (ip), vehicle: saline with Tween-80
# [3] = dose: 100.0 mg/kg/injection, schedule: Q01DX009 (ip), vehicle: saline with Tween-80
# [4] = dose: 25.0 mg/kg/injection, schedule: Q01DX005 (ip), vehicle: Klucel (hydroxypropylcellulose) (HPC)
# [5] = dose: 50.0 mg/kg/injection, schedule: Q01DX005 (ip), vehicle: Klucel (hydroxypropylcellulose) (HPC)
# [6] = dose: 100.0 mg/kg/injection, schedule: Q01DX005 (ip), vehicle: Klucel (hydroxypropylcellulose) (HPC)
# [7] = dose: 200.0 mg/kg/injection, schedule: Q01DX005 (ip), vehicle: Klucel (hydroxypropylcellulose) (HPC)
# [8] = dose: 100.0 mg/kg/injection, schedule: Q01DX005 (ip), vehicle: saline with Tween-80
# [9] = dose: 200.0 mg/kg/injection, schedule: Q01DX005 (ip), vehicle: saline with Tween-80
# [10] = dose: 60.0 mg/kg/injection, schedule: Q01DX005 (ip), vehicle: saline with Tween-80
# [11] = dose: 120.0 mg/kg/injection, schedule: Q01DX005 (ip), vehicle: saline with Tween-80
# [12] = dose: 240.0 mg/kg/injection, schedule: Q01DX005 (ip), vehicle: saline with Tween-80
# [13] = dose: 100.0 mg/kg/injection, schedule: Q01DX001 (ip), vehicle: saline with Tween-80
# [14] = dose: 200.0 mg/kg/injection, schedule: Q01DX001 (ip), vehicle: saline with Tween-80
# [15] = dose: 400.0 mg/kg/injection, schedule: Q01DX001 (ip), vehicle: saline with Tween-80
compound,measurement,setting,value
Clc1ccc(N=C/C=C\C=C/Nc2ccc(Cl)cc2)cc1,T/C,"dose: 5.0 mg/kg/injection, schedule: Q01DX009 (ip), vehicle: saline with Tween-80",108 % of control
same,T/C,"dose: 10.0 mg/kg/injection, schedule: Q01DX005 (ip), vehicle: saline with Tween-80",108 % of control
same,T/C,"dose: 10.0 mg/kg/injection, schedule: Q01DX009 (ip), vehicle: saline with Tween-80",97 % of control
same,T/C,"dose: 20.0 mg/kg/injection, schedule: Q01DX005 (ip), vehicle: saline with Tween-80",95 % of control
same,T/C,"dose: 20.0 mg/kg/injection, schedule: Q01DX009 (ip), vehicle: saline with Tween-80",95 % of control
same,T/C,"dose: 40.0 mg/kg/injection, schedule: Q01DX005 (ip), vehicle: saline with Tween-80",100 % of control
same,T/C,"dose: 80.0 mg/kg/injection, schedule: Q01DX005 (ip), vehicle: saline with Tween-80",98 % of control
same,T/C,"dose: 160.0 mg/kg/injection, schedule: Q01DX005 (ip), vehicle: saline with Tween-80",93 % of control
c1ccc2c(c1)c1c(c3ccccc32)CNCC1,T/C,"dose: 3.12 mg/kg/injection, schedule: Q01DX005 (ip), vehicle: saline with Tween-80",97 % of control
same,T/C,"dose: 6.25 mg/kg/injection, schedule: Q01DX005 (ip), vehicle: saline with Tween-80",95 % of control
same,T/C,"dose: 12.5 mg/kg/injection, schedule: Q01DX005 (ip), vehicle: saline with Tween-80",101 % of control and 95 % of control
same,T/C,[1],117 % of control
Cc1c2c(cn1C)NC(=O)CN=C2c1ccccc1,T/C,[2],105 % of control
same,T/C,[3],116 % of control
same,T/C,"dose: 200.0 mg/kg/injection, schedule: Q01DX009 (ip), vehicle: saline with Tween-80",99 % of control
O=c1[nH]nc(SCc2ccc(Cl)cc2)c(=O)[nH]1,T/C,[4],92 % of control
same,T/C,[5],91 % of control
same,T/C,[6],90 % of control
same,T/C,[7],87 % of control
COc1ccc(/C=N\N2CN(C(CC(N)=O)C(=O)O)C(O)(CCl)N=C2N)cc1OC (stereo unspecified),T/C,"dose: 60.0 mg/kg/injection, schedule: Q01DX005 (ip), vehicle: saline",95 % of control
same,T/C,"dose: 120.0 mg/kg/injection, schedule: Q01DX005 (ip), vehicle: saline",98 % of control
same,T/C,"dose: 240.0 mg/kg/injection, schedule: Q01DX005 (ip), vehicle: saline",98 % of control
COc1ccc2c(c1)CN(Cc1c(Cl)cccc1Cl)CO2,T/C,[4],98 % of control
same,T/C,[5],115 % of control and 97 % of control
same,T/C,[6],103 % of control and 92 % of control
same,T/C,[7],89 % of control
N=c1c2ncn(C3OC(CO)C(O)C3O)c2ncn1O (stereo unspecified),T/C,"dose: 6.25 mg/kg/injection, schedule: Q01DX005 (ip), vehicle: saline",97 % of control
same,T/C,"dose: 12.5 mg/kg/injection, schedule: Q01DX005 (ip), vehicle: saline",101 % of control
same,T/C,"dose: 25.0 mg/kg/injection, schedule: Q01DX005 (ip), vehicle: saline",101 % of control and 112 % of control
same,T/C,[1],105 % of control
same,T/C,"dose: 50.0 mg/kg/injection, schedule: Q01DX005 (ip), vehicle: saline",112 % of control and 94 % of control
same,T/C,[8],100 % of control
same,T/C,[9],108 % of control
CNC(=O)OCc1c(COC(=O)NC)c(-c2ccc(Sc3ccccc3)cc2)n(C)c1C,T/C,"dose: 12.5 mg/kg/injection, schedule: Q01DX009 (ip), vehicle: distilled water + Tween-80",154 % of control
same,T/C,"dose: 25.0 mg/kg/injection, schedule: Q01DX009 (ip), vehicle: distilled water + Tween-80",152 % of control
same,T/C,"dose: 50.0 mg/kg/injection, schedule: Q01DX009 (ip), vehicle: distilled water + Tween-80",160 % of control and 162 % of control
same,T/C,"dose: 100.0 mg/kg/injection, schedule: Q01DX009 (ip), vehicle: distilled water + Tween-80",171 % of control and 184 % of control
same,T/C,"dose: 200.0 mg/kg/injection, schedule: Q01DX009 (ip), vehicle: distilled water + Tween-80",108 % of control
CN(C)P1(=O)OCC(C(C)(C)C)CN1c1ccccc1 (stereo unspecified),T/C,"dose: 100.0 mg/kg/injection, schedule: Q04DX003 (ip), vehicle: Klucel (hydroxypropylcellulose) (HPC)",97 % of control
same,T/C,"dose: 200.0 mg/kg/injection, schedule: Q04DX003 (ip), vehicle: Klucel (hydroxypropylcellulose) (HPC)",97 % of control
CCCCCCCCCCCCCCCC[N+](C)(C)CC#N,T/C,"dose: 12.5 mg/kg/injection, schedule: Q01DX009 (ip), vehicle: saline",100 % of control
same,T/C,"dose: 25.0 mg/kg/injection, schedule: Q01DX009 (ip), vehicle: saline",89 % of control
COc1ccc2c(c1[N+](=O)[O-])CC[C@@H]1[C@@H]2CC[C@]2(C)C(=O)CC[C@@H]12,T/C,"dose: 25.0 mg/kg/injection, schedule: Q01DX005 (ip), vehicle: saline with Tween-80",103 % of control
same,T/C,[1],105 % of control
same,T/C,[8],99 % of control
same,T/C,[9],86 % of control
CSc1c(C(=O)O)cc(C(C)(C)C)cc1C(=O)O,T/C,"dose: 50.0 mg/kg/injection, schedule: Q01DX009 (ip), vehicle: Klucel (hydroxypropylcellulose) (HPC)",91 % of control
same,T/C,"dose: 100.0 mg/kg/injection, schedule: Q01DX009 (ip), vehicle: Klucel (hydroxypropylcellulose) (HPC)",100 % of control
same,T/C,"dose: 200.0 mg/kg/injection, schedule: Q01DX009 (ip), vehicle: Klucel (hydroxypropylcellulose) (HPC)",91 % of control
COC(=O)C1CC(I)C2OC(=O)C1C2C(=O)OC (stereo unspecified),T/C,[10],91 % of control
same,T/C,[11],99 % of control
same,T/C,[12],97 % of control
O=C(CCC(=O)Nc1cc(Cl)ccc1Cl)CC(=O)c1ccc([N+](=O)[O-])cc1,T/C,[10],98 % of control
same,T/C,[11],100 % of control
same,T/C,[12],109 % of control
CC1C(=O)OC2C1CCC1(C)C=CC(=O)C(C)C21 (stereo unspecified),T/C,"dose: 12.5 mg/kg/injection, schedule: Q04DX002 (ip), vehicle: saline with Tween-80",110 % of control
same,T/C,"dose: 25.0 mg/kg/injection, schedule: Q04DX002 (ip), vehicle: saline with Tween-80",103 % of control
COC(=O)/C(C#N)=C/Sc1ccccc1,T/C,[13],101 % of control
same,T/C,[14],98 % of control
same,T/C,[15],97 % of control
COc1ccc(C2c3cc4c(cc3OC(N3CCCC3)C2C)OCO4)cc1 (stereo unspecified),T/C,"dose: 7.5 mg/kg/injection, schedule: Q01DX005 (ip), vehicle: saline with Tween-80",90 % of control
same,T/C,"dose: 15.0 mg/kg/injection, schedule: Q01DX005 (ip), vehicle: saline with Tween-80",90 % of control
same,T/C,"dose: 30.0 mg/kg/injection, schedule: Q01DX005 (ip), vehicle: saline with Tween-80",94 % of control
same,T/C,[12],90 % of control
CCOC(=O)c1ccc2[nH]c(-c3ccc(S(=O)(=O)F)cc3)cc(=O)c2c1,T/C,"dose: 12.5 mg/kg/injection, schedule: Q01DX009 (ip), vehicle: saline with Tween-80",87 % of control
same,T/C,"dose: 25.0 mg/kg/injection, schedule: Q01DX009 (ip), vehicle: saline with Tween-80",93 % of control
same,T/C,[2],96 % of control
same,T/C,[3],93 % of control
CC(=O)OC1SC(C)(C)n2c1nc1ccccc1c2=O (stereo unspecified),T/C,[13],100 % of control
same,T/C,[14],104 % of control
same,T/C,[15],98 % of control
O=C(C(=O)c1cccc(C(=O)C(=O)c2ccccc2)c1)c1ccccc1,T/C,[10],104 % of control
same,T/C,[11],96 % of control
same,T/C,[12],92 % of control
Nc1ccccc1C(=O)Nc1ccc(Cl)cc1C(=O)O,T/C,"dose: 50.0 mg/kg/injection, schedule: Q01DX009 (ip), vehicle: saline",101 % of control
same,T/C,"dose: 100.0 mg/kg/injection, schedule: Q01DX009 (ip), vehicle: saline",106 % of control
NC(CS)=NCC1C2CC3CC(C2)CC1C3 (stereo unspecified),T/C,"dose: 0.78 mg/kg/injection, schedule: Q01DX009 (ip), vehicle: Klucel (hydroxypropylcellulose) (HPC)",100 % of control
same,T/C,"dose: 1.56 mg/kg/injection, schedule: Q01DX009 (ip), vehicle: Klucel (hydroxypropylcellulose) (HPC)",100 % of control
same,T/C,"dose: 3.12 mg/kg/injection, schedule: Q01DX009 (ip), vehicle: Klucel (hydroxypropylcellulose) (HPC)",100 % of control and 91 % of control
same,T/C,"dose: 6.25 mg/kg/injection, schedule: Q01DX009 (ip), vehicle: Klucel (hydroxypropylcellulose) (HPC)",104 % of control
CN(C)C(n1cc2c(c1)-c1ccc(Cl)cc1C(c1ccccc1F)=NC2)n1cc2c(c1)-c1ccc(Cl)cc1C(c1ccccc1F)=NC2,T/C,[10],93 % of control
same,T/C,[11],92 % of control
same,T/C,[12],91 % of control
Cn1c2ccccc2c2nnc(N/N=C/c3cccnc3)nc21,T/C,"dose: 100.0 mg/kg/injection, schedule: Q04DX002 (ip), vehicle: saline with Tween-80",91 % of control
same,T/C,"dose: 200.0 mg/kg/injection, schedule: Q04DX002 (ip), vehicle: saline with Tween-80",86 % of control and 90 % of control
same,T/C,"dose: 400.0 mg/kg/injection, schedule: Q04DX002 (ip), vehicle: saline with Tween-80",99 % of control and 90 % of control and 95 % of control
